According to the supplement of paper PMC13380429:

What was measured:
Details in all cases: 72 h
[1] = test system: Caco-2; experiment: cell viability relative to DMSO; higher = less toxic
[2] = test system: Calu-3; experiment: as above
[3] = test system: HepG2; experiment: as above
[4] = test system: U2OS; experiment: as above
[5] = test system: Vero E6; experiment: as above
[6] = test system: Caco-2; experiment: relative viability EC50 (midpoint between 100% and the lowest measured viability); higher = less toxic
[7] = test system: Calu-3; experiment: as above
[8] = test system: U2OS; experiment: as above
[9] = test system: Vero E6; experiment: as above
[10] = test system: Caco-2; experiment: drug sensitivity score (DSS) for viability; higher = more toxic; extreme values may be limits of the assay
[11] = test system: Calu-3; experiment: as above
[12] = test system: HepG2; experiment: as above
[13] = test system: U2OS; experiment: as above
[14] = test system: Vero E6; experiment: as above
[15] = test system: HepG2; experiment: relative viability EC50 (midpoint between 100% and the lowest measured viability); higher = less toxic

| Compound | cell viability ([1]; 1 nM) [%] | cell viability ([1]; 10 nM) [%] | cell viability ([1]; 100 nM) [%] | cell viability ([1]; 1000 nM) [%] | cell viability ([1]; 10000 nM) [%] | cell viability ([2]; 1 nM) [%] | cell viability ([2]; 10 nM) [%] | cell viability ([2]; 100 nM) [%] | cell viability ([2]; 1000 nM) [%] | cell viability ([2]; 10000 nM) [%] | cell viability ([3]; 1 nM) [%] | cell viability ([3]; 10 nM) [%] | cell viability ([3]; 100 nM) [%] | cell viability ([3]; 1000 nM) [%] | cell viability ([3]; 10000 nM) [%] | cell viability ([4]; 1 nM) [%] | cell viability ([4]; 10 nM) [%] | cell viability ([4]; 100 nM) [%] | cell viability ([4]; 1000 nM) [%] | cell viability ([4]; 10000 nM) [%] | cell viability ([5]; 1 nM) [%] | cell viability ([5]; 10 nM) [%] | cell viability ([5]; 100 nM) [%] | cell viability ([5]; 1000 nM) [%] | cell viability ([5]; 10000 nM) [%] | relative viability EC50 [6] [µM] | relative viability EC50 [7] [µM] | relative viability EC50 [8] [µM] | relative viability EC50 [9] [µM] | drug sensitivity score [10] | drug sensitivity score [11] | drug sensitivity score [12] | drug sensitivity score [13] | drug sensitivity score [14] | relative viability EC50 [15] [µM] |
| --- | --- | --- | --- | --- | --- | --- | --- | --- | --- | --- | --- | --- | --- | --- | --- | --- | --- | --- | --- | --- | --- | --- | --- | --- | --- | --- | --- | --- | --- | --- | --- | --- | --- | --- | --- |
| N#C/C(=C\c1ccc(O)c(O)c1)C(=O)NCc1ccccc1 [AG-490] | 95.9 | 98.7 | 92.5 | 92.2 | 82.1 | 96.7 | 103 | 92.8 | 96.7 | 91.6 | 96.4 | 101 | 99.9 | 95 | 66.6 | 94.1 | 99.8 | 95.8 | 103 | 95.5 | 94.1 | 98.2 | 98.7 | 94.7 | 86.6 | > 10 | > 10 | > 10 | > 10 | 0.7 | 0 | 2.4 | 0 | 0.2 | – |
| O=C(Nc1cccc(Br)c1)c1cccc(S(=O)(=O)N2CCCCCC2)c1 [AK-7] | 90.6 | 94.9 | 93.5 | 92.9 | 75.1 | 102 | 94 | 106 | 105 | 77 | 96.7 | 103 | 99.9 | 104 | 72.9 | 97.7 | 92.8 | 98.5 | 92.8 | 86.3 | 98.7 | 102 | 99.4 | 100 | 94.3 | > 10 | > 10 | > 10 | > 10 | 1.4 | 0.6 | 0.9 | 0 | 0 | – |
| COc1ccnc2[nH]cc(C(=O)C(=O)N3CCN(C(=O)c4ccccc4)C[C@H]3C)c12 [BMS-806] | 99.3 | 99 | 96.1 | 108 | 107 | 105 | 108 | 107 | 110 | 99.3 | – | – | – | – | – | 93.3 | 104 | 95.1 | 105 | 100 | 107 | 102 | 102 | 105 | 99.9 | > 10 | > 10 | > 10 | > 10 | 0 | 0 | – | 0 | 0 | – |
| O=S(=O)(NCCNC/C=C/c1ccc(Br)cc1)c1cccc2cnccc12 [H-89] | 99.9 | 103 | 98.7 | 99.9 | 89.6 | 79.7 | 100 | 87.6 | 103 | 118 | 95.5 | 96.4 | 91.9 | 102 | 74.7 | 101 | 96 | 102 | 97.2 | 90.7 | 96.8 | 97.6 | 100 | 97 | 82.9 | > 10 | > 10 | > 10 | > 10 | 0 | 0 | 0.8 | 0 | 0.7 | – |
| O=C(O)COc1ccc(OCCNC[C@H](O)COc2ccccc2)cc1 [ICI-215,001] | 98.1 | 111 | 103 | 103 | 116 | – | – | – | – | – | 106 | 104 | 104 | 104 | 97.1 | – | – | – | – | – | 106 | 97.5 | 101 | 104 | 92.6 | > 10 | – | – | > 10 | 0 | – | 0 | – | 0 | > 10 |
| CCOCOC[C@H](C[C@H](C)C(=O)NO)NC(=O)c1ccc(Oc2ccccc2)cc1 [ONO-4817] | 104 | 104 | 100 | 103 | 87.6 | 92.3 | 85.3 | 97.6 | 95.4 | 89.2 | – | – | – | – | – | 98.1 | 103 | 97.1 | 104 | 92.6 | 103 | 102 | 103 | 101 | 91.5 | > 10 | > 10 | > 10 | > 10 | 0 | 0 | – | 0 | 0 | – |
| CC(C)C[C@H](CN)CC(=O)O [PREGABALIN] | 128 | 122 | 95 | 104 | 82.6 | – | – | – | – | – | 105 | 87.3 | 106 | 103 | 98.9 | 94.5 | 102 | 98.9 | 98.2 | 98.2 | 93.5 | 105 | 106 | 103 | 100 | > 10 | – | > 10 | > 10 | 0.3 | – | 0 | 0 | 0 | > 10 |
